Values quoted from earlier work in publication PMC7904743, “WIDOCK: a reactive docking protocol for virtual screening of covalent inhibitors” (Journal of Computer-Aided Molecular Design, 2021).
Read-outs that look alike come from different tables or passages of the source.

How the values were obtained:
OTUB2 = conditions: experimental actives if % labeling higher than 50%; cited from earlier work
NUDT7 = conditions: protein labeling at 200 μM; experimental actives if % labeling higher than 50%; cited from earlier work
[1] = thiol reactivity, cited from earlier work
[2] = natural log of average rate constant k
[3] = natural logarithm of average rate constant

| SMILES | OTUB2 % labeling (OTUB2) | NUDT7 % labeling (NUDT7) | ln(avg k) [1, 2] | ln(avg k) [1, 3] |
| --- | --- | --- | --- | --- |
| N#CC(c1ccc(F)cc1)N1CCN(C(=O)CCl)CC1 (stereo not shown) [PCM-0102341, N#CC(c1ccc(F)cc1)N1CCN(C(=O)CCl)CC1] | 0% | 0% | -14.949 | -14.949 |
| CC(NC(=O)CCl)c1ccc2c(c1)OCCO2 (stereo not shown) [PCM-0102342, CC(NC(=O)CCl)c1ccc2c(c1)OCCO2] | 57% | 8% | -16.412 | -16.412 |
| O=C(CCl)N1CCN(S(=O)(=O)c2ccc(F)c(Cl)c2)CC1 [PCM-0102343, O=C(CCl)N1CCN(S(=O)(=O)c2ccc(F)c(Cl)c2)CC1] | 0% | 12% | -15.080 | -15.080 |
| CN(Cc1ccc(Cl)cc1)C(=O)CCl [PCM-0102344, CN(Cc1ccc(Cl)cc1)C(=O)CCl] | 0% | 34% | -15.486 | -15.486 |
| CN(C)C(=O)c1cccc(NC(=O)CCl)c1 [PCM-0102345, CN(C)C(=O)c1cccc(NC(=O)CCl)c1] | 0% | 10% | -15.488 | -15.488 |
| O=C(CCl)N1CCN(CC(=O)N2CCCC2)CC1 [PCM-0102346, O=C(CCl)N1CCN(CC(=O)N2CCCC2)CC1] | 0% | 0% | -16.189 | -16.189 |
| CC(C)(C)c1cc(NC(=O)CCl)on1 [PCM-0102348, CC(C)(C)c1cc(NC(=O)CCl)on1] | 0% | 0% | -15.607 | -15.607 |
| CN(Cc1ccc(Cl)c(Cl)c1)C(=O)CCl [PCM-0102349, CN(Cc1ccc(Cl)c(Cl)c1)C(=O)CCl] | 0% | 59% | -15.496 | -15.496 |
| CC(NC(=O)CCl)c1ccc2ccccc2c1 (stereo not shown) [PCM-0102350, CC(NC(=O)CCl)c1ccc2ccccc2c1] | 47% | 31% | -16.423 | -16.423 |
| Cc1cc(C)c(NC(=O)CCl)c(C)c1 [PCM-0102352, Cc1cc(C)c(NC(=O)CCl)c(C)c1] | 0% | 0% | -17.111 | -17.111 |
| Cc1ccc(C)c(S(=O)(=O)N2CCN(C(=O)CCl)CC2)c1 [PCM-0102353, Cc1ccc(C)c(S(=O)(=O)N2CCN(C(=O)CCl)CC2)c1] | 6% | 19% | -15.325 | -15.325 |
| Cc1ccc(Cl)cc1NC(=O)CCl [PCM-0102354, Cc1ccc(Cl)cc1NC(=O)CCl] | 0% | 0% | -16.394 | -16.394 |
| CC(C)(C)c1ccc(C(=O)NNC(=O)CCl)cc1 [PCM-0102355, CC(C)(C)c1ccc(C(=O)NNC(=O)CCl)cc1] | 66% | 0% | -17.324 | -17.324 |
| O=C(CCl)NCC1CCCO1 (stereo not shown) [PCM-0102356, O=C(CCl)NCC1CCCO1] | 5% | 0% | -16.672 | -16.672 |
| O=C(CCl)N1CCN(c2ccc(O)cc2)CC1 [PCM-0102357, O=C(CCl)N1CCN(c2ccc(O)cc2)CC1] | 0% | 0% | -15.487 | -15.487 |
| Cc1cccc(C(C)C)c1NC(=O)CCl [PCM-0102358, Cc1cccc(C(C)C)c1NC(=O)CCl] | 0% | 0% | -16.961 | -16.961 |
| O=C(CCl)NC(=O)NC12CC3CC(CC(C3)C1)C2 [PCM-0102360, O=C(CCl)NC(=O)NC12CC3CC(CC(C3)C1)C2] | 12% | 0% | -16.068 | -16.068 |

| SMILES | OTUB2 % labeling (OTUB2) | NUDT7 % labeling (NUDT7) | ln(avg k) [1, 2] | ln(avg k) [1, 3] |
| --- | --- | --- | --- | --- |
| O=C(CCl)N1CCN(S(=O)(=O)c2ccc(F)c(F)c2)CC1 [PCM-0102361, O=C(CCl)N1CCN(S(=O)(=O)c2ccc(F)c(F)c2)CC1] | 0% | 0% | -15.093 | -15.093 |
| O=C1CN(C(=O)CCl)c2ccccc2N1 [PCM-0102362, O=C1CN(C(=O)CCl)c2ccccc2N1] | 0% | 0% | -15.567 | -15.567 |
| O=C1CC(C(F)(F)F)N(C(=O)CCl)c2ccccc2N1 (stereo not shown) [PCM-0102363, O=C1CC(C(F)(F)F)N(C(=O)CCl)c2ccccc2N1] | 0% | 28% | -15.654 | -15.654 |
| O=C(CCl)Nc1cccc(F)c1 [PCM-0102364, O=C(CCl)Nc1cccc(F)c1] | 0% | 9% | -15.960 | -15.960 |
| CN(C)C(=O)CNC(=O)CCl [PCM-0102365, CN(C)C(=O)CNC(=O)CCl] | 0% | 0% | -17.142 | -17.142 |
| O=C(CCl)Nc1cc([N+](=O)[O-])ccc1Cl [PCM-0102366, O=C(CCl)Nc1cc([N+](=O)[O-])ccc1Cl] | 27% | 20% | -15.888 | -15.888 |
| COC(=O)c1sccc1NC(=O)CCl [PCM-0102367, COC(=O)c1sccc1NC(=O)CCl] | 0% | 12% | -15.715 | -15.715 |
| CN(C(=O)CCl)c1ccccc1 [PCM-0102368, CN(C(=O)CCl)c1ccccc1] | 0% | 0% | -15.648 | -15.648 |
| CCc1ccccc1NC(=O)CCl [PCM-0102369, CCc1ccccc1NC(=O)CCl] | 0% | 0% | -16.517 | -16.517 |
| COc1ccc(Cl)cc1NC(=O)CCl [PCM-0102370, COc1ccc(Cl)cc1NC(=O)CCl] | 18% | 23% | -15.854 | -15.854 |
| O=C(CCl)N(c1ccccc1)C1C=CS(=O)(=O)C1 (stereo not shown) [PCM-0102372, O=C(CCl)N(c1ccccc1)C1C=CS(=O)(=O)C1] | 0% | 28% | -15.071 | -15.071 |
| O=C(CCl)N1CCN(c2ccccc2F)CC1 [PCM-0102373, O=C(CCl)N1CCN(c2ccccc2F)CC1] | 0% | 0% | -15.871 | -15.871 |
| CC(NC(=O)CCl)c1ccc(Br)cc1 (stereo not shown) [PCM-0102374, CC(NC(=O)CCl)c1ccc(Br)cc1] | 34% | 23% | -16.325 | -16.325 |
| O=C(CCl)Nc1ccccc1N1CCCC1=O [PCM-0102375, O=C(CCl)Nc1ccccc1N1CCCC1=O] | 13% | 0% | -16.453 | -16.453 |
| O=C(CCl)NC(=O)Nc1ccccc1F [PCM-0102376, O=C(CCl)NC(=O)Nc1ccccc1F] | 0% | 0% | -15.900 | -15.900 |
| O=C(CCl)N1CCCCCCC1 [PCM-0102377, O=C(CCl)N1CCCCCCC1] | 0% | 0% | -15.780 | -15.780 |
| O=C(CCl)N1CCN(c2ncc(C(F)(F)F)cc2Cl)CC1 [PCM-0102378, O=C(CCl)N1CCN(c2ncc(C(F)(F)F)cc2Cl)CC1] | 5% | 14% | -15.476 | -15.476 |
